Here are results for one compound from ChEMBL document CHEMBL1159010, “Constituents of Azadirachta indica: isolation and structure elucidation of a new antibacterial tetranortriterpenoid, mahmoodin, and a new protolimonoid, naheedin” (1992).

What all share (assay type): functional
Common to all, as to details: read-out: IZ

Test [1] relates to Bacillus subtilis. Put plainly: Antimicrobial activity against Bacillus subtilis at 10 mg.
The test system of test [2] is Enterococcus faecalis. Put plainly: Antimicrobial activity against Streptococcus faecalis at 10 mg.
Test [3] deals with Bacillus cereus. Put plainly: Antimicrobial activity against Bacillus cereus at 10 mg.
Test [4] relates to Staphylococcus aureus. The test can be described thus: Antimicrobial activity against Staphylococcus aureus at 10 mg.
Test [5] relates to Salmonella. The test can be described thus: Antimicrobial activity against Salmonella schotmuelleri at 10 mg.
Test [6] concerns Klebsiella pneumoniae. The test can be described thus: Antimicrobial activity against Klebsiella pneumoniae at 10 mg.
Test [7] has as its system Shigella sonnei. The test can be described thus: Antimicrobial activity against Shigella sonnei at 10 mg.
Test [8] deals with Corynebacterium xerosis. The test can be described thus: Antimicrobial activity against Corynebacterium xerosis at 10 mg.
The subject of test [9] is Streptococcus pyogenes. Put plainly: Antimicrobial activity against Streptococcus pyogenes at 10 mg.

Structures are written as SMILES.

Regarding `CC(=O)O[C@@H]1C[C@H]2C(C)(C)C(=O)C=C[C@]2(C)[C@H]2CC[C@]3(C)C(=CC(=O)O[C@@]3(OCCO)c3ccoc3)[C@@]21C`, the zone of inhibition at 10000 µg/disc in [1] worked out at 20 mm; in test [2], 22 mm; in [3], 18 mm; in test [4] it was 17 mm; in [5], 20 mm; in [6], 15 mm. The zone of inhibition at 10000 µg/disc in [7] amounted to 16 mm; in [8] it was 17 mm; in test [9], 28 mm.
